Source: patent US20050282205A1, “GLUT5 transporters expressed in cancer cells” (Xenoport, Inc., priority 2004, published 2005)

Biological target: T1, Human GLUT5 (Homo sapiens, UniProt P22732)
T1 construct: expressed in transfected cells; host or cells: Xenopus oocytes injected with in vitro transcribed GLUT5 cRNA
T1 sequence (P22732 1-501): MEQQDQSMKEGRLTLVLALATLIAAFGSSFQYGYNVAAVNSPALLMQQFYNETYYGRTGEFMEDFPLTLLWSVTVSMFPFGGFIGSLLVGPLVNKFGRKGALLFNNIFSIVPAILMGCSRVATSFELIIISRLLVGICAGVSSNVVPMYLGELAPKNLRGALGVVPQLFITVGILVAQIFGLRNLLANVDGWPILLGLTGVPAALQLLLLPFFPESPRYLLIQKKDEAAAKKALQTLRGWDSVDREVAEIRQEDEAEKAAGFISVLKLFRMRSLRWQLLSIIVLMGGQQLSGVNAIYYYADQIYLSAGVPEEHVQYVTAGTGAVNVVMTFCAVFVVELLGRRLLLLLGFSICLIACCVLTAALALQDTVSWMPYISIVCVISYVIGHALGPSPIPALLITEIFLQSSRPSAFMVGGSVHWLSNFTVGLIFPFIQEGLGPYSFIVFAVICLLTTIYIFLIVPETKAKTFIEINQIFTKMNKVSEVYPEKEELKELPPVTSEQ
Experiment: 3H-fructose uptake in Xenopus oocytes expressing GLUT5
Format: cell-based
Conditions: Xenopus oocytes injected with GLUT5 cRNA, ND96 buffer, 3 minutes, scintillation counting (FIG. 2)
Method: To assess transport function of a specific transporter protein, it can be desirable to clone the cDNA and express the protein in cells that have low endogenous transport activity. Human GLUT5 was cloned by PCR, fully sequenced, and subcloned into plasmids that can be used for expression in mammalian cells or Xenopus oocytes. […] For expression in Xenopus oocytes, in vitro GLUT5 cRNA was prepared and injected into defoliculated oocytes.
Oocytes expressing GLUT5 or control oocytes not expressing GLUT5 were incubated in an oocyte ringers (ND96) buffer (90 mM NaCl, 10 mM HemiNa HEPES, 2 mM KCl, 1 mM MgCl, 1.8 mM CaCl2) containing 0.5% bovine serum albumin and 3H-fructose ([…]) for 3 minutes. Oocytes were washed and uptake of radiolabel quantified by scintillation counting.

O=C(CO)[C@@H](O)[C@H](O)[C@H](O)CO [^3H-fructose, fructose]
uptake of radiolabel into oocytes expressing GLUT5 versus noninjected controls: higher levels of ^3H-fructose uptake than noninjected controls
